Experimental data reported in ChEMBL document CHEMBL4813966, “Discovery of 3,6-disubstutited-imidazo[1,2-a]pyridine derivatives as a new class of CLK1 inhibitors” (Bioorg Med Chem Lett, 2021).
Activity calls are given as the source filed them. No cut-off for these calls is given here.

Legend:
[1] = molecular target: T1, Dual specificity protein kinase CLK1 (Homo sapiens, UniProt P49759); assay: Inhibition of recombinant human CLK1 (130 to end residues) using ERMRPRKRQGSVR as substrate incubated for 40 mins in presence of [gamma-33ATP] by scintillation counting based radiometry assay
Target sequence in this assay (P49759 whole entry): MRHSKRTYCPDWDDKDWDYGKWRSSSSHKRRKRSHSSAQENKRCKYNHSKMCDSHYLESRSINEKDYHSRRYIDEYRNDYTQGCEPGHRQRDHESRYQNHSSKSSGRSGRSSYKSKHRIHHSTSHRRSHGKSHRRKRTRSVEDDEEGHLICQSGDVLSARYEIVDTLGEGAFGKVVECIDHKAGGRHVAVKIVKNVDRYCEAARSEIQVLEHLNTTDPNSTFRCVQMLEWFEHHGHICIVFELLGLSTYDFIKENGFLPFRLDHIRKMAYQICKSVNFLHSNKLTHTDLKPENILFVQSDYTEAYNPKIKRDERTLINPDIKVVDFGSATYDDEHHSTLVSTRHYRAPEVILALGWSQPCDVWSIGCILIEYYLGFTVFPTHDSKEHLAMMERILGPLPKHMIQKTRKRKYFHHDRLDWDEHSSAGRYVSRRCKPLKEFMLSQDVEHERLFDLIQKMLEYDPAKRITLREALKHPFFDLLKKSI

SK-OV-3 [2] = assay: Induction of autophagy in human SKOV-3 cells assessed as degradation of SQSTM1/p62 at 0.33 to 30 uM measured after 24 hrs by Western blot analysis; assay type: functional, cell-based; settings: dose 0.33-30 µM
SK-OV-3 [3] = assay: Induction of autophagy in human SKOV-3 cells assessed as increase in LC3-II to LC3-I ratio incubated for 24 hrs by Western blot analysis; assay type: functional, cell-based; settings: dose 0.33-30 µM
[4] = molecular target: T1, Dual specificity protein kinase CLK1; assay: Inhibition of CLK1 in human SKOV-3 cells assessed as decrease in SRp55 phosphorylation after 24 hrs by Western blot analysis; assay type: cell-based; settings: SK-OV-3, dose 0.33-30 µM
Target sequence in this assay (P49759 whole entry, looked up): as the sequence (P49759 whole entry) above

[5] = molecular target: Dual specificity tyrosine-phosphorylation-regulated kinase 1A (Homo sapiens, UniProt Q13627); assay: Inhibition of recombinant full length human DYRK1A using RRRFRPASPLRGPPK as substrate incubated for 40 mins in presence of [gamma-33ATP] by scintillation counting based radiometry assay
[6] = molecular target: Dual specificity protein kinase CLK4 (Homo sapiens, UniProt Q9HAZ1); assay: Inhibition of recombinant human CLK4 (128 to end residues) using YRRAAVPPSPSLSRHSSPHQS(p)EDEEE as substrate incubated for 40 mins in presence of [gamma-33ATP] by scintillation counting based radiometry assay
Dual specificity protein kinase CLK4, sequence (Q9HAZ1 whole entry): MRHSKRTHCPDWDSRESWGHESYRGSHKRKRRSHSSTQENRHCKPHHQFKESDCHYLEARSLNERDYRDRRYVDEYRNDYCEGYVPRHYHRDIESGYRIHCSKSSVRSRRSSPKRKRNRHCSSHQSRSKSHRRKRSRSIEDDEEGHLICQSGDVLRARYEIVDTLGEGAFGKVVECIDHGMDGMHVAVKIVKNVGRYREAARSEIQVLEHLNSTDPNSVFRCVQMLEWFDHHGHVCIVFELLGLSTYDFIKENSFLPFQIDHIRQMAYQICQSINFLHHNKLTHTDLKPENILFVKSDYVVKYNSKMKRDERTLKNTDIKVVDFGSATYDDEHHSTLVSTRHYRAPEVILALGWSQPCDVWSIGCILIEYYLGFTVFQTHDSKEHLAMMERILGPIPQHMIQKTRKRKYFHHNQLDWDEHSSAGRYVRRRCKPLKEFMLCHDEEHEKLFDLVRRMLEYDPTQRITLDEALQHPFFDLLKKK

[7] = molecular target: Dual specificity protein kinase CLK2 (Homo sapiens, UniProt P49760); assay: Inhibition of recombinant human CLK2 (138 to end residues) using YRRAAVPPSPSLSRHSSPHQS(p)EDEEE as substrate incubated for 40 mins in presence of [gamma-33ATP] by scintillation counting based radiometry assay
Dual specificity protein kinase CLK2, sequence (P49760 whole entry): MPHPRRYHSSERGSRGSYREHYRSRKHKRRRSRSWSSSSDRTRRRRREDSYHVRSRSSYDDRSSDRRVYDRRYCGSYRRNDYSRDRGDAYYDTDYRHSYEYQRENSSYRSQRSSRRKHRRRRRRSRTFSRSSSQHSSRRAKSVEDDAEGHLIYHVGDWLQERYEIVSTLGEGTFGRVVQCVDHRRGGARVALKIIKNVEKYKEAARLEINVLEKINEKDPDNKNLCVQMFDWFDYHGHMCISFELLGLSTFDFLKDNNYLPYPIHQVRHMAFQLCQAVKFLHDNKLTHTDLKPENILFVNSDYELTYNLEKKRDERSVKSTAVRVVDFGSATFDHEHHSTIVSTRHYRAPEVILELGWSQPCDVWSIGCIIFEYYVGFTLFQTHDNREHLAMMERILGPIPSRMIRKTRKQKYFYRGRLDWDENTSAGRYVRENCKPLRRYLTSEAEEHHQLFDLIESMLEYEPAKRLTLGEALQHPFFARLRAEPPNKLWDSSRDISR

SK-OV-3 [8] = assay: Induction of autophagy in human SKOV-3 cells assessed as increase in LC3-II protein level incubated for 24 hrs by Western blot analysis; assay type: functional, cell-based; settings: dose 0.33-30 µM
[9] = molecular target: Dual specificity protein kinase CLK3 (Homo sapiens, UniProt P49761); assay: Inhibition of recombinant full length human CLK3 using ERMRPRKRQGSVR as substrate incubated for 40 mins in presence of [gamma-33ATP] by scintillation counting based radiometry assay
Dual specificity protein kinase CLK3, sequence (P49761 whole entry): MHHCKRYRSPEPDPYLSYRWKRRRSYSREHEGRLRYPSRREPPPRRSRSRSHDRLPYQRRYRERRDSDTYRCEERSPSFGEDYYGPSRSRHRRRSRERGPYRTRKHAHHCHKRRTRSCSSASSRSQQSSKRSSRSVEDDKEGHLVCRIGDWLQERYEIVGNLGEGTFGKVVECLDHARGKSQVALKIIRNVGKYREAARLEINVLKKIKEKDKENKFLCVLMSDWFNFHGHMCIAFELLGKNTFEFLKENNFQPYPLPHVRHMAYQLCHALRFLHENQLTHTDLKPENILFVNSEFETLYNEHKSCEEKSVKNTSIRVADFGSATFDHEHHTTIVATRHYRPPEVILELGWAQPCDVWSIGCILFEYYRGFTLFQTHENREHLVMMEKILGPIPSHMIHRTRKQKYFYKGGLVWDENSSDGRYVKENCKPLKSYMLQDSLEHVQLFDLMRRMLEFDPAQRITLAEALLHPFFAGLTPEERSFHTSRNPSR

SK-OV-3 [10] = assay: Induction of autophagic flux in human SKOV-3 cells assessed as LC3-II protein level at 10 uM after 24 hrs in presence of V-ATPase inhibitor bafilomycin-A1 by Western blot analysis; assay type: functional, cell-based
SK-OV-3 [11] = assay: Induction of autophagic flux in human SKOV-3 cells assessed as SQSTM1/p62 protein level at 10 uM after 24 hrs in presence of V-ATPase inhibitor bafilomycin-A1 by Western blot analysis; assay type: functional, cell-based
[12] = molecular target: Dual specificity tyrosine-phosphorylation-regulated kinase 1B (Homo sapiens, UniProt Q9Y463); assay: Inhibition of recombinant full length human DYRK1B using RRRFRPASPLRGPPK as substrate incubated for 40 mins in presence of [gamma-33ATP] by scintillation counting based radiometry assay
Dual specificity tyrosine-phosphorylation-regulated kinase 1B, sequence (Q9Y463 whole entry): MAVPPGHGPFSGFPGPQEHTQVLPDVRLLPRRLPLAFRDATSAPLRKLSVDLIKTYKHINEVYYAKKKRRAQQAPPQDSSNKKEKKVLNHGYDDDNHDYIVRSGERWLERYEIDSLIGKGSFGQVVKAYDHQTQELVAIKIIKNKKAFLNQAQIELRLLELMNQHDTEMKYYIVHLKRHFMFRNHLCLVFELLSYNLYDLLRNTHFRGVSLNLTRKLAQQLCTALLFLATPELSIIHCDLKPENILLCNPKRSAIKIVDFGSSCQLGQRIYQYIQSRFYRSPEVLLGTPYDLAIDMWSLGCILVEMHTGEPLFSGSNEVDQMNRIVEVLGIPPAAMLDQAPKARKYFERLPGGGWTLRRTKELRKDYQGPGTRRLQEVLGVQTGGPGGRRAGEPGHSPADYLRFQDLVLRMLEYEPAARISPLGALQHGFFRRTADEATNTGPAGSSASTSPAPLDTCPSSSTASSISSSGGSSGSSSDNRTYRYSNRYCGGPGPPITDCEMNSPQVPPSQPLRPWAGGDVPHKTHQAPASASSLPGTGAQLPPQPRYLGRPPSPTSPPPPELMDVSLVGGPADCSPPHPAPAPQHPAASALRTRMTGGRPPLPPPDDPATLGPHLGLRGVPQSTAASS

[13] = molecular target: T1, Dual specificity protein kinase CLK1; assay: Inhibition of CLK1 in human SKOV-3 cells assessed as redistribution of SR protein from nucleoplasm to nuclear speckles at 0.1 uM after 24 hrs by immunofluorescence assay; assay type: cell-based; settings: SK-OV-3
Target sequence in this assay (P49759 whole entry, looked up): as the sequence (P49759 whole entry) above

[14] = molecular target: T1, Dual specificity protein kinase CLK1; assay: Inhibition of CLK1 in human SKOV-3 cells assessed as decrease in SRp75 phosphorylation after 24 hrs by Western blot analysis; assay type: cell-based; settings: SK-OV-3, dose 0.33-30 µM
Target sequence in this assay (P49759 whole entry, looked up): as the sequence (P49759 whole entry) above

SK-OV-3 [15] = assay: Induction of autophagy in human SKOV-3 cells transfected with Ad-mRFP-GFP-LC3 assessed as induction of autophagosomes formation by measuring increase in number of yellow LC3 puncta at 0.1 uM measured after 24 hrs by confocal microscopic analysis; assay type: functional, cell-based
SK-OV-3 [16] = assay: Induction of autophagy in human SKOV-3 cells transfected with Ad-mRFP-GFP-LC3 assessed as induction of autolysosomes formation by measuring increase in number of red LC3 puncta at 0.1 uM measured after 24 hrs by confocal microscopic analysis; assay type: functional, cell-based

| Structure (SMILES) | IC50 [1] | other results |
| --- | --- | --- |
| COc1ccc([C@H](C)NC(=O)c2cnc3ccc(-c4cnn(C)c4)cn23)cc1 | 809 nM | – |
| COc1ccc(CNC(=O)c2cnc3ccc(-c4ccc5ocnc5c4)cn23)cc1 | 122 nM | – |
| Cn1cc(-c2ccc3ncc(C(=O)NCc4ccc(Cl)cc4)n3c2)cn1 | 14 nM | – |
| C[C@@H](NC(=O)c1cnc2ccc(-c3cnn(C)c3)cn12)c1ccccc1 | 14 nM | – |
| C[C@H](NC(=O)c1cnc2ccc(-c3cnn(C)c3)cn12)c1ccc(Cl)cc1 | 399 nM | – |
| COc1ccc(CNC(=O)c2cnc3ccc(-c4ccc5ncccc5c4)cn23)cc1 | 4 nM | Activity (SK-OV-3 [2]): Active; Activity (SK-OV-3 [3]): Dose-Dependent Effect; inhibition [4]: Dose-Dependent Effect; IC50 [5]: 10 nM; IC50 [6]: 17 nM; IC50 [7]: 50 nM; Activity (SK-OV-3 [8]): Dose-Dependent Effect; IC50 [9]: > 10 µM; Activity (SK-OV-3 [10]): inactive; Activity (SK-OV-3 [11]): inactive; IC50 [12]: 148 nM; inhibition [13]: Active; inhibition [14]: Dose-Dependent Effect; Activity (SK-OV-3 [15]): Active; Activity (SK-OV-3 [16]): Active |
| COc1ccc(CNC(=O)c2cnc3ccc(-c4ccncc4)cn23)cc1 | 13 nM | – |
| COc1ccc([C@@H](C)NC(=O)c2cnc3ccc(-c4cnn(C)c4)cn23)cc1 | 8 nM | – |
| CNC(=O)c1cnc2ccc(-c3cnn(C)c3)cn12 | 23 nM | – |
| COc1ccc(CNC(=O)c2cnc3ccc(-c4ccc5ccccc5c4)cn23)cc1 | > 10000 nM | – |
| C[C@H](NC(=O)c1cnc2ccc(-c3cnn(C)c3)cn12)c1ccccc1 | 296 nM | – |
| C[C@@H](NC(=O)c1cnc2ccc(-c3cnn(C)c3)cn12)c1ccc(Cl)cc1 | 11 nM | – |
| COc1ccc([C@H](C)NC(=O)c2cnc3ccc(-c4ccc5ncccc5c4)cn23)cc1 | 44 nM | – |
| COc1cccc(CNC(=O)c2cnc3ccc(-c4cnn(C)c4)cn23)c1 | 11 nM | – |
| Cn1cc(-c2ccc3ncc(C(=O)NCc4ccccc4)n3c2)cn1 | 12 nM | – |
| COc1ccc(NC(=O)c2cnc3ccc(-c4cnn(C)c4)cn23)cc1 | 7 nM | – |
| C[C@@H](NC(=O)c1cnc2ccc(-c3ccc4ncccc4c3)cn12)c1ccccc1 | 6 nM | – |
| COc1ccc([C@@H](C)NC(=O)c2cnc3ccc(-c4ccc5ncccc5c4)cn23)cc1 | 6 nM | – |
| C[C@H](NC(=O)c1cnc2ccc(-c3ccc4ncccc4c3)cn12)c1ccccc1 | 52 nM | – |
| COc1ccc(NNC(=O)c2cnc3ccc(-c4ccc5ncccc5c4)cn23)cc1 | 5 nM | – |
| COc1ccc(CNC(=O)c2cnc3ccc(-c4c(C)noc4C)cn23)cc1 | > 10000 nM | – |
| COc1ccc(CNC(=O)c2cnc3ccc(-c4cnn(C)c4)cn23)cc1 | 6 nM | – |
| CC(C)Oc1ccc(CNC(=O)c2cnc3ccc(-c4cnn(C)c4)cn23)cc1 | 8 nM | – |
